Reference: patent US10800791B2, “Triazole ACC inhibitors and uses thereof” (Gilead Apollo, LLC, priority 2015, dated 2020)
Values after ≈ are worked out from the molar mass of the structure shown. Like-named read-outs stand apart in the source and are kept apart here.

What was measured:
Botrtyis cinerea (Bc) = assay: Growth inhibition assay of fungal pathogens, Bc; assay type: cell-based; conditions: 48 h
Method in brief: (§1)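 Spores diluted in 17% V8 liquid media and incubated with compound at final 50, 10, 2 ppm or 2, 0.4, 0.08 ppm (2% DMSO). OD600 plus visual ratings at 24 and 48 hours, blank-subtracted; percent growth inhibition from 48 h readings relative to 2% DMSO control.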

[1] = test system: Fusarium moniliforme (Fm); assay: Growth inhibition assay of fungal pathogens, Fm; assay type: cell-based; conditions: for IC90: Fusarium verticillioides, 48 h, read-out: Concentration at 90% Inhibition Fm
Method in brief: as §1

[2] = test system: Phytophthora capsici (Pc); assay: Growth inhibition assay of fungal pathogens, Pc; assay type: cell-based; conditions: 48 h
Method in brief: as §1

Septoria tritici (St) = assay: Growth inhibition assay of fungal pathogens, St; assay type: cell-based; conditions: Zymoseptoria tritici, 48 h
Method in brief: as §1

[3] = test system: Fusarium virguliforme (Fv); assay: Growth inhibition assay of fungal pathogens, Fv; assay type: cell-based; conditions: 48 h
Method in brief: as §1

fungal (fACC2) = fungal (fACC2) (UniProt Q00955); conditions: read-out: fACC2 (in vitro ACC2 Inhibition Assay, IC50), ADP-Glo, 5 nM ACC2, 20 μM ATP, 20 μM acetyl-CoA
Diplodia maydis (Dm) = assay: Growth inhibition assay of fungal pathogens, Dm; assay type: cell-based; conditions: Stenocarpella maydis, 48 h
Method in brief: as §1

[4] = test system: Collectotrichum graminicola (Cg); assay: Growth inhibition assay of fungal pathogens, Cg; assay type: cell-based; conditions: 48 h
Method in brief: as §1

C. parapsilosis = assay: Antifungal Activity Assay (broth microtiter MIC), C. parapsilosis; assay type: cell-based, Candida parapsilosis; conditions: Lodderomyces parapsilosis, ATCC22019, 48 h
Method in brief: (§2)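 Susceptibility was determined by CLSI M27-A3 broth microdilution in RPMI 1640 buffered with MOPS. Growth inhibition was scored visually after 48 h.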

C. albicans = assay: Antifungal Activity Assay (broth microtiter MIC), C. albicans; assay type: cell-based, Candida albicans; conditions: Candida albicans, ATCC90028, 48 h
Method in brief: as §2

C. krusei = assay: Antifungal Activity Assay (broth microtiter MIC), C. krusei; assay type: cell-based, Candida krusei; conditions: Pichia kudriavzevii, ATCC6258, 48 h
Method in brief: as §2

[5] = Fusarium moniliforme, growth inhibition at 48 hours vs 2% DMSO control

Sequence of fungal (fACC2) (Q00955 whole entry): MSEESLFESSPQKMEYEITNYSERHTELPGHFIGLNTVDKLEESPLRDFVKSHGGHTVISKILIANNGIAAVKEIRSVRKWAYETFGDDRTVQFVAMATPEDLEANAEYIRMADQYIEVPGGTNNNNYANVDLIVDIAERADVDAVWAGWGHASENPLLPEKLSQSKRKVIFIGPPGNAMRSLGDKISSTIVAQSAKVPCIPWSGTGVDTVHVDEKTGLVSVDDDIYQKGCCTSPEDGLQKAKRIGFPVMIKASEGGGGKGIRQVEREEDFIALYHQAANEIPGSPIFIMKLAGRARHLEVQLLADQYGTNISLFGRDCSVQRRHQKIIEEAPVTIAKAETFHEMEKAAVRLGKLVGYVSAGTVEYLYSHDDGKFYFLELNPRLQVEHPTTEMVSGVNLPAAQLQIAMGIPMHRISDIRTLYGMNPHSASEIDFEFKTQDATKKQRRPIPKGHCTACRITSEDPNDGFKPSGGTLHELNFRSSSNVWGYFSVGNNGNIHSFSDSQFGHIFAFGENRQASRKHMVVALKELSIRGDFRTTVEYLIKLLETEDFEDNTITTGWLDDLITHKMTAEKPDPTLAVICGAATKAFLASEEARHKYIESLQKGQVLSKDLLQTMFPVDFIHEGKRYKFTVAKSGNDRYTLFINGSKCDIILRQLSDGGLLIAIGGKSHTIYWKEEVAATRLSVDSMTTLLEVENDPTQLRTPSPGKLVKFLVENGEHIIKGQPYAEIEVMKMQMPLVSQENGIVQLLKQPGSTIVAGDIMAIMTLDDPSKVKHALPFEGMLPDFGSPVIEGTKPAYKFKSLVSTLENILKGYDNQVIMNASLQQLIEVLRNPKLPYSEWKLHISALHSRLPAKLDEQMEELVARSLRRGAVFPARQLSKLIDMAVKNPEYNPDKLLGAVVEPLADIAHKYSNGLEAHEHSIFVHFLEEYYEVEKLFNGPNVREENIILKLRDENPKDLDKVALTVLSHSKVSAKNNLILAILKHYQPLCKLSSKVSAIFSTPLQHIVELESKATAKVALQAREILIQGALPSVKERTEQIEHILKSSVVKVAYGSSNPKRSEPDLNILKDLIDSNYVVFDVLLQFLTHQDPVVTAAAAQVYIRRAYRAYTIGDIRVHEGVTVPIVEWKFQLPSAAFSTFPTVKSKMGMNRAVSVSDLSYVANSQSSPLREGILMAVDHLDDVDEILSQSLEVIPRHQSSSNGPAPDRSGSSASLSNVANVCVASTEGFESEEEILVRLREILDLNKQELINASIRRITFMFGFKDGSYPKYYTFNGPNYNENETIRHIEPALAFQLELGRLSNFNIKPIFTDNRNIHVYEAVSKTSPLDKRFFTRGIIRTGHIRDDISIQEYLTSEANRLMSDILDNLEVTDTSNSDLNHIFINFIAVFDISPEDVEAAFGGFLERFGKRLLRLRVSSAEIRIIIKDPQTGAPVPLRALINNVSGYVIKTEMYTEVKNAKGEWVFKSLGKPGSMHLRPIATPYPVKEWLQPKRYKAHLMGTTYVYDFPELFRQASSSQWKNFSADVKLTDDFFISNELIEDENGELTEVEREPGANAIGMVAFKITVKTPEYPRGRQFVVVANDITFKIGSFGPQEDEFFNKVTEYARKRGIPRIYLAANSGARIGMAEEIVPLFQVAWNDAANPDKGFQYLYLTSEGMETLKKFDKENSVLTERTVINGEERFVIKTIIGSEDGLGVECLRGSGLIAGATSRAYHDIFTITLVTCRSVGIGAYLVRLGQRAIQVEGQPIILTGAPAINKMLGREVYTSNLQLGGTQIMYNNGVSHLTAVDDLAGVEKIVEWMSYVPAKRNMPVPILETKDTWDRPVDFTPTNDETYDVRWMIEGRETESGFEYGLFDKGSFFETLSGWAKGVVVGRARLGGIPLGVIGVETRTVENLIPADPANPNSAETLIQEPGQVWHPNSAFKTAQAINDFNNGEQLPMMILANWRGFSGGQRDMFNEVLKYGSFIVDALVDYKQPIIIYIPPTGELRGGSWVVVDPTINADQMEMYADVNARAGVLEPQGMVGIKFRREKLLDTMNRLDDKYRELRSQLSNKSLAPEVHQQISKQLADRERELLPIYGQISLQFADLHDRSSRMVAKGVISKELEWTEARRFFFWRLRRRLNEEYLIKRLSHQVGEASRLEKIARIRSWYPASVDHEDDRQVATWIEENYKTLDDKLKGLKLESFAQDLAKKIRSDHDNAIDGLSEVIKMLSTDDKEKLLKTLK

In the case of `COc1ccc(F)cc1[C@H](Cn1c(=O)n(C(C)(C)C(=O)NC(C)C)c(=O)c2c(C)c(-n3nccn3)sc21)OC(C)C` [Compound I-4, (R)-2-(1-(2-(5-fluoro-2-methoxyphenyl)-2-isopropoxyethyl)-5-methyl-2,4-dioxo-6-(2H-1,2,3-triazol-2-yl)-1,4-dihydrothieno[2,3-d]pyrimidin-3(2H)-yl)-N-isopropyl-2-methylpropanamide], the IC90 (Botrtyis cinerea (Bc); read-out: Concentration at 90% Inhibition Bc, Botrtyis cinerea, growth inhibition at 48 hours vs 2% DMSO control) is reported as 0.08 µg/mL (≈ 0.136 µM), the IC90 (Botrtyis cinerea (Bc); read-out: Concentration at 90% Inhibition Bc, Botrtyis cinerea, growth inhibition vs 2% DMSO control at 48 hours) is reported as 0.08 µg/mL (≈ 0.136 µM) and the “Concentration at 90% Inhibition Fm” value [1, 5] is reported as “AA (compound concentration of 0.08 ppm at 90% inhibition of fungal pathogens)”. It also gave an IC90 [1] of 0.08 µg/mL (≈ 0.136 µM), an IC90 ([2]; read-out: Concentration at 90% Inhibition Pc, Phytophthora capsici, growth inhibition at 48 hours vs 2% DMSO control) greater than 50 µg/mL and an IC90 ([2]; read-out: Concentration at 90% Inhibition Pc, Phytophthora capsici, growth inhibition vs 2% DMSO control at 48 hours) greater than 50 µg/mL. The IC90 (Septoria tritici (St); read-out: Concentration at 90% Inhibition St, Septoria tritici, growth inhibition at 48 hours vs 2% DMSO control) was 2 µg/mL (≈ 3.41 µM), the IC90 (Septoria tritici (St); read-out: Concentration at 90% Inhibition St, Septoria tritici, growth inhibition vs 2% DMSO control at 48 hours) was 10 µg/mL (≈ 17 µM) and the IC90 ([3]; read-out: Concentration at 90% Inhibition Fv, Fusarium virguliforme, growth inhibition at 48 hours vs 2% DMSO control) was 0.4 µg/mL (≈ 0.682 µM). For the same molecule, the IC90 ([3]; read-out: Concentration at 90% Inhibition Fv, Fusarium virguliforme, growth inhibition vs 2% DMSO control at 48 hours) was 0.4 µg/mL (≈ 0.682 µM), the IC50 (fungal (fACC2); Table 2a) was 1 to 5 nM and the IC50 (fungal (fACC2); Table 2b, additional results) was 1 to 5 nM. It also gave an IC90 (Diplodia maydis (Dm); read-out: Concentration at 90% Inhibition Dm, Diplodia maydis, growth inhibition at 48 hours vs 2% DMSO control) of 0.08 µg/mL (≈ 0.136 µM), an IC90 (Diplodia maydis (Dm); read-out: Concentration at 90% Inhibition Dm, Diplodia maydis, growth inhibition vs 2% DMSO control at 48 hours) of 0.08 µg/mL (≈ 0.136 µM) and an IC90 ([4]; read-out: Concentration at 90% Inhibition Cg, Collectotrichum graminicola, growth inhibition at 48 hours vs 2% DMSO control) of 0.08 µg/mL (≈ 0.136 µM). For the same molecule, the IC90 ([4]; read-out: Concentration at 90% Inhibition Cg, Collectotrichum graminicola, growth inhibition vs 2% DMSO control at 48 hours) was 0.08 µg/mL (≈ 0.136 µM), the MIC (C. parapsilosis; read-out: MIC, C. parapsilosis ATCC 22019, Table 3a, 3 replicates, MIC recorded at 48 h) was 0.25 to 1 µg/mL (≈ 0.426 to 1.7 µM) and the MIC (C. parapsilosis; read-out: MIC, C. parapsilosis ATCC 22019, Table 3b (additional results), 3 replicates, MIC recorded at 48 h) was 1.01 to 2 µg/mL (≈ 1.72 to 3.41 µM). It also gave an MIC (C. albicans; read-out: MIC, C. albicans ATCC 90028, Table 3a, 3 replicates, MIC recorded at 48 h) of 0.25 to 1 µg/mL (≈ 0.426 to 1.7 µM), an MIC (C. albicans; read-out: MIC, C. albicans ATCC 90028, Table 3b (additional results), 3 replicates, MIC recorded at 48 h) of 0.25 to 1 µg/mL (≈ 0.426 to 1.7 µM) and an MIC (C. krusei; read-out: MIC, C. krusei ATCC 6258, Table 3a, 3 replicates, MIC recorded at 48 h) of 0.25 to 1 µg/mL (≈ 0.426 to 1.7 µM). The MIC (C. krusei; read-out: MIC, C. krusei ATCC 6258, Table 3b (additional results), 3 replicates, MIC recorded at 48 h) was 0.25 to 1 µg/mL (≈ 0.426 to 1.7 µM).

For `COc1ccc(F)cc1[C@H](Cn1c(=O)n(C(C)(C)C(=O)N2CCCC2)c(=O)c2c(C)c(-n3nccn3)sc21)OC(C)C` [Compound I-7, (R)-1-(2-(5-fluoro-2-methoxyphenyl)-2-isopropoxyethyl)-5-methyl-3-(2-methyl-1-oxo-1-(pyrrolidin-1-yl)propan-2-yl)-6-(2H-1,2,3-triazol-2-yl)thieno[2,3-d]pyrimidine-2,4(1H,3H)-dione], the IC90 (Botrtyis cinerea (Bc); Botrtyis cinerea, growth inhibition at 48 hours vs 2% DMSO control, read-out: Concentration at 90% Inhibition Bc) was 0.4 µg/mL (≈ 0.668 µM), the IC90 (Botrtyis cinerea (Bc); Botrtyis cinerea, growth inhibition vs 2% DMSO control at 48 hours, read-out: Concentration at 90% Inhibition Bc) was 0.4 µg/mL (≈ 0.668 µM) and the IC90 [1, 5] was 0.08 µg/mL (≈ 0.134 µM). The IC90 ([1]; Fusarium moniliforme, growth inhibition vs 2% DMSO control at 48 hours) was 0.08 µg/mL (≈ 0.134 µM), the IC90 ([2]; growth inhibition at 48 hours vs 2% DMSO control, read-out: Concentration at 90% Inhibition Pc) was greater than 50 µg/mL and the IC90 ([2]; growth inhibition vs 2% DMSO control at 48 hours, read-out: Concentration at 90% Inhibition Pc) was greater than 50 µg/mL. It also gave an IC90 (Septoria tritici (St); Septoria tritici, growth inhibition at 48 hours vs 2% DMSO control, read-out: Concentration at 90% Inhibition St) of 10 µg/mL (≈ 16.7 µM), an IC90 (Septoria tritici (St); Septoria tritici, growth inhibition vs 2% DMSO control at 48 hours, read-out: Concentration at 90% Inhibition St) greater than 50 µg/mL and an IC90 ([3]; growth inhibition at 48 hours vs 2% DMSO control, read-out: Concentration at 90% Inhibition Fv) of 0.08 µg/mL (≈ 0.134 µM). The IC90 ([3]; growth inhibition vs 2% DMSO control at 48 hours, read-out: Concentration at 90% Inhibition Fv) was 0.08 µg/mL (≈ 0.134 µM), the IC50 (fungal (fACC2); Table 2a) was 1 to 5 nM and the IC50 (fungal (fACC2); Table 2b, additional results) was 1 to 5 nM. For the same molecule, the IC90 (Diplodia maydis (Dm); Diplodia maydis, growth inhibition at 48 hours vs 2% DMSO control, read-out: Concentration at 90% Inhibition Dm) was 0.08 µg/mL (≈ 0.134 µM), the IC90 (Diplodia maydis (Dm); Diplodia maydis, growth inhibition vs 2% DMSO control at 48 hours, read-out: Concentration at 90% Inhibition Dm) was 0.08 µg/mL (≈ 0.134 µM) and the IC90 ([4]; Collectotrichum graminicola, growth inhibition at 48 hours vs 2% DMSO control, read-out: Concentration at 90% Inhibition Cg) was 0.08 µg/mL (≈ 0.134 µM). The IC90 ([4]; Collectotrichum graminicola, growth inhibition vs 2% DMSO control at 48 hours, read-out: Concentration at 90% Inhibition Cg) was 0.08 µg/mL (≈ 0.134 µM), the MIC (C. parapsilosis; Table 3a, ATCC 22019, 3 replicates, MIC recorded at 48 h, read-out: MIC, C. parapsilosis ATCC 22019) was 1.1 to 2 µg/mL (≈ 1.84 to 3.34 µM) and the MIC (C. parapsilosis; Table 3b (additional results), ATCC 22019, 3 replicates, MIC recorded at 48 h, read-out: MIC, C. parapsilosis ATCC 22019) was 1.01 to 2 µg/mL (≈ 1.69 to 3.34 µM). It also gave an MIC (C. albicans; Table 3a, ATCC 90028, 3 replicates, MIC recorded at 48 h, read-out: MIC, C. albicans ATCC 90028) of 1.1 to 2 µg/mL (≈ 1.84 to 3.34 µM), an MIC (C. albicans; Table 3b (additional results), ATCC 90028, 3 replicates, MIC recorded at 48 h, read-out: MIC, C. albicans ATCC 90028) of 0.25 to 1 µg/mL (≈ 0.418 to 1.67 µM) and an MIC (C. krusei; Table 3a, ATCC 6258, 3 replicates, MIC recorded at 48 h, read-out: MIC, C. krusei ATCC 6258) of 0.25 to 1 µg/mL (≈ 0.418 to 1.67 µM). The MIC (C. krusei; Table 3b (additional results), ATCC 6258, 3 replicates, MIC recorded at 48 h, read-out: MIC, C. krusei ATCC 6258) was 0.25 to 1 µg/mL (≈ 0.418 to 1.67 µM).
